Values after ≈ are worked out from the molar mass of the structure shown. Active and inactive are the calls of the source. The calls are words filed in the database; no cut-off is given here.
Columns and labels:
[1] = tested on: Mycoplasmoides pneumoniae; assay: Ratio of MIC for levofloxacin to compound MIC for Mycoplasma pneumoniae 18-1; type: functional
Streptococcus pneumoniae [2] = assay: Antibacterial activity against quinolone, penicillin-resistant Streptococcus pneumoniae 104835 after 18 hrs by microbroth dilution method; type: functional; conditions: Streptococcus pneumoniae, 104835, 18 h
[3] = Ratio of AUC (0 to 8 hrs) in Crj:CD rat liver to AUC (0 to 8 hrs) in Crj:CD rat serum at 5 mg/kg, po; type: ADME, organism-based; set-up: dose 5 mg/kg, route oral; conditions: read-out: Ratio AUC
[4] = tested on: Staphylococcus epidermidis; assay: Antibacterial activity against Staphylococcus epidermidis 56500 after 18 hrs by microbroth dilution method; type: functional; conditions: Staphylococcus epidermidis, 56500, 18 h
Staphylococcus aureus [5] = assay: Antibacterial activity against Staphylococcus aureus FDA 209-P after 18 hrs by microbroth dilution method; type: functional
[6] = tested on: Mycoplasmoides pneumoniae; assay: Antibacterial activity against Mycoplasma pneumoniae ATCC 29085 after 18 hrs by microbroth dilution method; type: functional; conditions: ATCC 29085, 18 h
Mus musculus [7] = assay: Toxicity in SLC:ddY mouse assessed as mortality at 50 mg/kg, iv after 7 days; type: organism-based; set-up: dose 50 mg/kg, route intravenous; conditions: in vivo, 168 h
Chlamydia pneumoniae [8] = assay: Antibacterial activity against Chlamydophila pneumoniae CM-1 after 18 hrs by microbroth dilution method; type: functional; conditions: CM-1, 18 h
[9] = AUC (0 to 8 hrs) in cynomolgus monkey serum at 5 mg/kg, iv; type: ADME, organism-based, Macaca fascicularis, Plasma; set-up: time < 8 hr, dose 5 mg/kg, route intravenous
Staphylococcus aureus [10] = assay: Ratio of MIC for levofloxacin to compound MIC for Staphylococcus aureus FDA 209-P; type: functional
[11] = Aqueous solubility of the compound; type: physicochemical
Chlamydia pneumoniae [12] = assay: Ratio of MIC for levofloxacin to compound MIC for Chlamydophila pneumoniae AR39; type: functional
Enterococcus faecalis [13] = assay: Antibacterial activity against Enterococcus faecalis ATCC 19433 after 18 hrs by microbroth dilution method; type: functional; conditions: ATCC 19433, 18 h
Cytochrome P450 3A4 = Cytochrome P450 3A4 (Homo sapiens, UniProt P08684); assay: Inhibition of CYP3A4 in human liver microsomes assessed as 1'-hydroxylation of midazolam; type: ADME, Microsome
[14] = Drug recovery in cynomolgus monkey urine at 5 mg/kg, po after 24 hrs; type: ADME, organism-based, Macaca fascicularis; set-up: dose 5 mg/kg, route oral; conditions: read-out: Drug recovery
[15] = Chloroform-phosphate buffer apparent partition coefficient of the compound, P at pH 7.4
Streptococcus pneumoniae [16] = assay: Antibacterial activity against levofloxacin-intermediate and levofloxacin-resistant Streptococcus pneumoniae after 18 hrs by microbroth dilution method; type: functional
[17] = AUC (0 to 24 hrs) in cynomolgus monkey serum at 5 mg/kg, po; type: ADME, organism-based, Macaca fascicularis, Plasma; set-up: time < 24 hr, dose 5 mg/kg, route oral
[18] = Drug uptake in cynomolgus monkey serum at 5 mg/kg, iv after 5 mins; type: ADME, organism-based, Macaca fascicularis; set-up: dose 5 mg/kg, route intravenous; conditions: read-out: Drug uptake
hERG (KCNH2) [19] = target: T1, hERG (KCNH2) (Homo sapiens, UniProt Q12809); assay: Inhibition of human ERG expressed in CHOK1 cells at 30 uM; type: cell-based; conditions: CHO-K1 cells expressing hERG
Klebsiella pneumoniae = assay: Antibacterial activity against Klebsiella pneumoniae TYPE1 after 18 hrs by microbroth dilution method; type: functional; conditions: TYPE1, 18 h
Enterococcus faecalis [20] = assay: Ratio of MIC for levofloxacin to compound MIC for Enterococcus faecalis ATCC 19433; type: functional
Mus musculus [21] = assay: Toxicity in SLC:ddY mouse assessed as mortality at 100 mg/kg, iv after 7 days; type: organism-based; set-up: dose 100 mg/kg, route intravenous; conditions: in vivo, 168 h
[22] = Plasma protein binding in human at 5 ug/mL by ultrafiltration method; type: ADME, cell-free; conditions: read-out: PPB (converted)
Streptococcus pneumoniae [23] = assay: Antibacterial activity against quinolone-sensitive Streptococcus pneumoniae infected in po dosed CBA/JNCrj mouse pneumonia model administered bid measured day after final administration of drug; type: functional, organism-based
[24] = tested on: Mycoplasmoides pneumoniae; assay: Antibacterial activity against Mycoplasma pneumoniae 18-1 after 18 hrs by microbroth dilution method; type: functional; conditions: 18-1, 18 h
[25] = tested on: Mycoplasmoides pneumoniae; assay: Ratio of MIC for levofloxacin to compound MIC for Mycoplasma pneumoniae ATCC 29085; type: functional
[26] = Drug recovery in Crj:CD rat urine at 5 mg/kg, po after 24 hrs; type: ADME, organism-based; set-up: dose 5 mg/kg, route oral; conditions: read-out: Drug recovery
Mus musculus [27] = assay: Toxicity in SLC:ddY mouse assessed as induction of micronucleus formation at 50 mg/kg, iv after 24 to 48 hrs by fluorescence microscopic analysis; type: organism-based; set-up: dose 50 mg/kg, route intravenous; conditions: in vivo
[28] = Bioavailability in cynomolgus monkey at 5 mg/kg, po; type: ADME, organism-based, Macaca fascicularis; conditions: in vivo
Escherichia coli = assay: Antibacterial activity against Escherichia coli NIHJ after 18 hrs by microbroth dilution method; type: functional
[29] = AUC (0 to 8 hrs) in Crj:CD rat lung at 5 mg/kg, po; type: ADME, organism-based; set-up: time < 8 hr, dose 5 mg/kg, route oral
Staphylococcus aureus [30] = assay: Antibacterial activity against levofloxacin-resistant and methicillin-resistant Staphylococcus aureus 870307 after 18 hrs by microbroth dilution method; type: functional; conditions: Staphylococcus aureus, 870307, 18 h
Streptococcus pneumoniae [31] = assay: Antibacterial activity against quinolone-resistant Streptococcus pneumoniae infected in sc dosed CBA/JNCrj mouse pneumonia model administered bid measured day after final administration of drug; type: functional, organism-based
Haemophilus influenzae = assay: Antibacterial activity against Haemophilus influenzae ATCC 49247 after 18 hrs by microbroth dilution method; type: functional; conditions: ATCC 49247, 18 h
Bacillus subtilis [32] = assay: Antibacterial activity against Bacillus subtilis IID 685 after 18 hrs by microbroth dilution method; type: functional; conditions: IID 685, 18 h
[33] = Cmax in Crj:CD rat serum at 5 mg/kg, po; type: ADME, organism-based; set-up: dose 5 mg/kg, route oral
[34] = Ratio of AUC (0 to 8 hrs) in Crj:CD rat lung to AUC (0 to 8 hrs) in Crj:CD rat serum at 5 mg/kg, po; type: ADME, organism-based; set-up: dose 5 mg/kg, route oral; conditions: read-out: Ratio AUC
[35] = tested on: Staphylococcus epidermidis; assay: Ratio of MIC for levofloxacin to compound MIC for Staphylococcus epidermidis 56500; type: functional
Streptococcus pneumoniae [36] = assay: Ratio of MIC for levofloxacin to compound MIC for penicillin-susceptible Streptococcus pneumoniae J24; type: functional
Moraxella catarrhalis = assay: Antibacterial activity against Moraxella catarrhalis ATCC 25238 after 18 hrs by microbroth dilution method; type: functional; conditions: ATCC 25238, 18 h
Mus musculus [37] = assay: Toxicity in SLC:ddY mouse assessed as mortality at 150 mg/kg, iv after 7 days; type: organism-based; set-up: dose 150 mg/kg, route intravenous; conditions: in vivo, 168 h
[38] = Ratio of AUC (0 to 8 hrs) in Crj:CD rat kidney to AUC (0 to 8 hrs) in Crj:CD rat serum at 5 mg/kg, po; type: ADME, organism-based; set-up: dose 5 mg/kg, route oral; conditions: read-out: Ratio AUC
[39] = Drug recovery in cynomolgus monkey urine at 5 mg/kg, iv after 24 hrs; type: ADME, organism-based, Macaca fascicularis; set-up: dose 5 mg/kg, route intravenous; conditions: read-out: Drug recovery
[40] = AUC (0 to 8 hrs) in Crj:CD rat liver at 5 mg/kg, po; type: ADME, organism-based; set-up: time < 8 hr, dose 5 mg/kg, route oral
[41] = Primary phase half life in cynomolgus monkey serum at 5 mg/kg, iv; type: ADME, organism-based, Macaca fascicularis; set-up: dose 5 mg/kg, route intravenous; conditions: read-out: alphat1/2 (converted)
[42] = AUC (0 to 8 hrs) in Crj:CD rat serum at 5 mg/kg, po; type: ADME, organism-based; set-up: time < 8 hr, dose 5 mg/kg, route oral
Streptococcus pyogenes [43] = assay: Ratio of MIC for levofloxacin to compound MIC for Streptococcus pyogenes G-36; type: functional
[44] = AUC (0 to 8 hrs) in Crj:CD rat kidney at 5 mg/kg, po; type: ADME, organism-based; set-up: time < 8 hr, dose 5 mg/kg, route oral
hERG (KCNH2) [45] = target: T1, hERG (KCNH2); assay: Inhibition of human ERG expressed in CHOK1 cells at 100 uM; type: cell-based; conditions: CHO-K1 cells expressing hERG
Chlamydia pneumoniae [46] = assay: Ratio of MIC for levofloxacin to compound MIC for Chlamydophila pneumoniae CM-1; type: functional
Bacillus subtilis [47] = assay: Ratio of MIC for levofloxacin to compound MIC for Bacillus subtilis IID 685; type: functional
Mus musculus [48] = assay: Toxicity in SLC:ddY mouse assessed as induction of micronucleus formation at 100 mg/kg, iv after 24 to 48 hrs by fluorescence microscopic analysis; type: organism-based; set-up: dose 100 mg/kg, route intravenous; conditions: in vivo
[49] = Cmax in cynomolgus monkey serum at 5 mg/kg, po; type: ADME, organism-based, Macaca fascicularis; set-up: dose 5 mg/kg, route oral
Streptococcus pyogenes [50] = assay: Antibacterial activity against Streptococcus pyogenes G-36 after 18 hrs by microbroth dilution method; type: functional; conditions: G-36, 18 h
Chlamydia pneumoniae [51] = assay: Antibacterial activity against Chlamydophila pneumoniae AR39 after 18 hrs by microbroth dilution method; type: functional; conditions: AR39, 18 h
Pseudomonas aeruginosa = assay: Antibacterial activity against Pseudomonas aeruginosa PAO1 after 18 hrs by microbroth dilution method; type: functional; conditions: PAO1, 18 h
[52] = Half life in cynomolgus monkey serum at 5 mg/kg, po; type: ADME, organism-based, Macaca fascicularis; set-up: dose 5 mg/kg, route oral
Streptococcus pneumoniae [53] = assay: Antibacterial activity against penicillin-susceptible Streptococcus pneumoniae J24 after 18 hrs by microbroth dilution method; type: functional; conditions: J24, 18 h
Mus musculus [54] = assay: Toxicity in SLC:ddY mouse assessed as induction of micronucleus formation at 150 mg/kg, iv after 24 to 48 hrs by fluorescence microscopic analysis; type: organism-based; set-up: dose 150 mg/kg, route intravenous; conditions: in vivo

T1 sequence (Q12809 whole entry): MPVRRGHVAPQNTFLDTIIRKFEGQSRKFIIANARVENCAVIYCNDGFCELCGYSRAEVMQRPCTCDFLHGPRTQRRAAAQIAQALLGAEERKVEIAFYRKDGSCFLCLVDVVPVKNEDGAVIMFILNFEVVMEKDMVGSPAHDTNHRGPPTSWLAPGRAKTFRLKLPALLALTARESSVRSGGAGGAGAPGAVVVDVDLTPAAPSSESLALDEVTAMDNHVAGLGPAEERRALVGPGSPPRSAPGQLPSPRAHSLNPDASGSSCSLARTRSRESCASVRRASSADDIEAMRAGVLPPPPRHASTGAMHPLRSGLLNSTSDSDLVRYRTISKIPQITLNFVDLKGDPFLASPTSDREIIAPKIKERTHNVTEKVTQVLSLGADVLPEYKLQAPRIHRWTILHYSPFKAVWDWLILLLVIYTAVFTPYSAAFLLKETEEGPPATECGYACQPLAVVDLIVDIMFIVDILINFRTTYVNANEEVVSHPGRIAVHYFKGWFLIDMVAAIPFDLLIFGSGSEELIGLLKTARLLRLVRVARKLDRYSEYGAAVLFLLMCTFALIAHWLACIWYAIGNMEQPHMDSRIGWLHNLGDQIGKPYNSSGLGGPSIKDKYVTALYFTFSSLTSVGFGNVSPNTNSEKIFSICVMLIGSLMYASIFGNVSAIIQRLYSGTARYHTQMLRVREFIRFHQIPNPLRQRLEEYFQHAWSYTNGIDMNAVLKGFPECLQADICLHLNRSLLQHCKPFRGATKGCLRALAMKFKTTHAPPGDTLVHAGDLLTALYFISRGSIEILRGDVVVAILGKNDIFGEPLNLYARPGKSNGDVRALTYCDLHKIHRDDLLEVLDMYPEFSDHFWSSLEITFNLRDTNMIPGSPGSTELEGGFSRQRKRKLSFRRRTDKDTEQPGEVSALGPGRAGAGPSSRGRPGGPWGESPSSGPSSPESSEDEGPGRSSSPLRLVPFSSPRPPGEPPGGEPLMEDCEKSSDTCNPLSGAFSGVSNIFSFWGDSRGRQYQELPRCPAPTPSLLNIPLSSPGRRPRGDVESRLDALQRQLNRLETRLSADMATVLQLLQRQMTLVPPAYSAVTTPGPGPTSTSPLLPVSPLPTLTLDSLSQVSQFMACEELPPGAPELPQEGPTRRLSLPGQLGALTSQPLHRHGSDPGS
Sequence of Cytochrome P450 3A4 (P08684 whole entry): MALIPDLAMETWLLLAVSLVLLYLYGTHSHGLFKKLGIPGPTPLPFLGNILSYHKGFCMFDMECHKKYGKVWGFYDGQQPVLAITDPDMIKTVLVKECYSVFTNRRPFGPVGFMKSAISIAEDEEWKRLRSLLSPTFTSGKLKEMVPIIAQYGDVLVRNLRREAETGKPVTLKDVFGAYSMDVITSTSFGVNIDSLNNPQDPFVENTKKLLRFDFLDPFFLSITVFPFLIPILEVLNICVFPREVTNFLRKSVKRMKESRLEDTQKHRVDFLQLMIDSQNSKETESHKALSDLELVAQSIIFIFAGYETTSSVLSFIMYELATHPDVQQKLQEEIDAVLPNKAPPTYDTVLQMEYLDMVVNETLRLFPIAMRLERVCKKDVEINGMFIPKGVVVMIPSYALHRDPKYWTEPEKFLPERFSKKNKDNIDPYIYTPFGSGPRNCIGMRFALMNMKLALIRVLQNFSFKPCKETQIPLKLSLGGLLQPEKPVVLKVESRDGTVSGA

COc1c(N2CC3(CC3)[C@](C)(N)C2)c(F)cc2c(=O)c(C(=O)O)cn([C@@H]3C[C@@H]3F)c12
Ratio [1]: 4 | MIC (Streptococcus pneumoniae [2]): 0.39 µg/mL (≈ 0.93 µM) | Kp [3]: 10.4 | MIC [4]: 0.1 µg/mL (≈ 0.238 µM) | MIC (Staphylococcus aureus [5]): 0.025 µg/mL (≈ 0.0596 µM) | MIC [6]: 0.12 µg/mL (≈ 0.286 µM) | Activity (Mus musculus [7]): Non-toxic | MIC (Chlamydia pneumoniae [8]): 0.063 µg/mL (≈ 0.15 µM) | AUC(0-t) at 8 h [9]: 23800 ng·h/mL | Ratio (Staphylococcus aureus [10]): >4 | solubility [11]: 620 µg/mL (≈ 1480 µM) | Ratio (Chlamydia pneumoniae [12]): 4 | MIC (Enterococcus faecalis [13]): 0.2 µg/mL (≈ 0.477 µM) | inhibition (INH) (Cytochrome P450 3A4): Not Active | dose excreted at 24 h [14]: 61.3% | P [15]: 19.2 | MIC50 (Streptococcus pneumoniae [16]): 1 µg/mL (≈ 2.38 µM) | MIC80 (Streptococcus pneumoniae [16]): 1 µg/mL (≈ 2.38 µM) | MIC90 (Streptococcus pneumoniae [16]): 1 µg/mL (≈ 2.38 µM) | AUC(0-t) at 24 h [17]: 16900 ng·h/mL | concentration at 5 min [18]: 3660 ng/mL | inhibition at 30 µM (hERG (KCNH2) [19]): 1.9% | MIC (Klebsiella pneumoniae): 0.05 µg/mL (≈ 0.119 µM) | Ratio (Enterococcus faecalis [20]): >4 | Activity (Mus musculus [21]): Non-toxic | fraction unbound at 5 ug/mL [22]: 0.653 | Activity (Streptococcus pneumoniae [23]): Active | MIC [24]: 0.12 µg/mL (≈ 0.286 µM) | Ratio [25]: 4 | dose excreted at 24 h [26]: 32% | Activity (Mus musculus [27]): Non-toxic | bioavailability [28]: 71% | MIC (Escherichia coli): 0.012 µg/mL (≈ 0.0286 µM) | AUC(0-t) at 8 h [29]: 13700 ng·h/mL | MIC (Staphylococcus aureus [30]): 0.39 µg/mL (≈ 0.93 µM) | Activity (Streptococcus pneumoniae [31]): Active | MIC (Haemophilus influenzae): 0.012 µg/mL (≈ 0.0286 µM) | MIC (Bacillus subtilis [32]): 0.1 µg/mL (≈ 0.238 µM) | Cmax [33]: 1220 ng/mL | Kp [34]: 4.4 | Ratio [35]: >4 | Ratio (Streptococcus pneumoniae [36]): >4 | MIC (Moraxella catarrhalis): 0.05 µg/mL (≈ 0.119 µM) | Activity (Mus musculus [37]): Non-toxic | Kp [38]: 9 | dose excreted at 24 h [39]: 69.8% | AUC(0-t) at 8 h [40]: 32100 ng·h/mL | half-life [41]: 4.8 h | AUC(0-t) at 8 h [42]: 3080 ng·h/mL | Ratio (Streptococcus pyogenes [43]): >4 | AUC(0-t) at 8 h [44]: 27800 ng·h/mL | inhibition at 100 µM (hERG (KCNH2) [45]): 2.7% | Ratio (Chlamydia pneumoniae [46]): 4 | Ratio (Bacillus subtilis [47]): >4 | Activity (Mus musculus [48]): Non-toxic | Cmax [49]: 2200 ng/mL | MIC (Streptococcus pyogenes [50]): 0.2 µg/mL (≈ 0.477 µM) | MIC (Chlamydia pneumoniae [51]): 0.125 µg/mL (≈ 0.298 µM) | MIC (Pseudomonas aeruginosa): 0.78 µg/mL (≈ 1.86 µM) | half-life [52]: 4.8 h | MIC (Streptococcus pneumoniae [53]): 0.05 µg/mL (≈ 0.119 µM) | Activity (Mus musculus [54]): Non-toxic
